“And” between values parts separate entries of the source, which are not always exact repeats. Equal values may be shown once. “Also recorded” adds a separate entry of the source.

What all share (format): biochemical
Assay [1] can be described thus: ORAC(fl) assay (fluorescein, method of Ou et al.). The conditions noted are these: mixed at different ratios with quercetin, standard acetone:water. The protocol:
Prior Art Method of Measuring Antioxidant Activity for Comparison. For the ORAC(fl) assay, the method of Ou et al. (Ou , B., Hampsch-Woodill, M. and Prior, R. L., J. Agric. Food Chem. 2001, 49, 4619-4626) was followed. Differences from the Ou procedure as published included the speed of the orbital shaker (Ou, 400 rpm; herein, 280 rpm), and the centrifuge speed (Ou, 14,000 rpm, 15 min; herein, 3200 rpm, 15 min and the length of the assay (Ou, 30 min; herein, 100 min). Fluorescein, sodium salt, was obtained from Aldrich (Milwaukee, Wis.). For the Ou method, a standard amount of fluorescein is added to an antioxidant product being tested, and the beginning level of fluorescence is measured. A free radical initiator is added, and the time and degree of disappearance of fluorescence are measured. Trolox®, 6-Hydroxy-2,5,7,8-tetramethylchroman-2-carboxylic Acid, is a cell-permeable, water-soluble derivative of vitamin E with potent antioxidant properties. Trolox® prevents peroxynitrite-mediated oxidative stress and apoptosis in rat thymocytes and is a synthetic antioxidant that is consistent from lot-to-lot and is used as the standard and run for comparison with each sample. A blank (control) used in calculations of the ORAC(o) value for each samples may be included in each run. Fluorescence vs. time is plotted. The blank (control) is subtracted from every curve. […]

Another assay is described as follows: ORAC(fl-lipo) assay. The text has this: FIGS. 12A and 12B are graphs of ORAC(fl-lipo) results using mixed-tocopherol and the relative AUC results using the solvent/water/detergent solution to dissolve the sample and detect both lipohilic and lipophobic anti-oxidant capacity.
Assay [2] can be described thus: ORAC(o) assay (dissolved oxygen, oxygen radical absorbance capacity). The protocol:
Method of Measuring Antioxidant Activity. In operation, the ORAC(o) assay of the present invention was used to evaluate antioxidant compositions, combinations and the like of solutions against a target molecule (linoleic acid) with oxygen present at equilibrium with the air. A free radical initiator is added and the time it takes for oxygen to disappear is measured, yielding the rate of disappearance. Trolox® is used as the standard, and a blank is run as a control. Amount of dissolved oxygen vs. time is plotted allowing direct comparison of net areas under the curve. A detailed method is as follows: Buffers (K2HPO4 (F.W. 174.2), NaH2PO4 (FW 120.0)) were obtained from Sigma (St. Louis, Mo.). Linoleic acid 99%, Trolox® (6-hydroxy-2,5,7,8-tetramethylchroman-2-carboxylic acid) 97%, TWEEN® 20, and 2,2'-azobis (2-methylpropionamidine) dihydrochloride 97% (AAPH), were obtained from Aldrich (Milwaukee, Wis.). HPLC grade acetone was obtained from Fisher (Hampton, […] biological oxygen meter was obtained from YSI (Yellow Springs, Ohio) and used according to the manufacturer's specifications. ORAC(o) Method. The following stock solutions were used. […] Weigh 65.33 g into 500 mL of volumetric flask, and add dH20 to the mark. Concentration is 750 mM. Store 750 mM K2HPO4 stock solution in a refrigerator (2 to 8° C.) equipped with a calibrated thermometer. Target temperature is 4° C. 750 mM NaH2PO4 (FW 120.0); Weigh 45.00 g into 500 mL of volumetric flask, and add dH20 to the mark. Concentration is 750 mM. Store 750 mM NaH2PO4 stock solution in a refrigerator (2 to 8° C.) equipped with a calibrated thermometer. Target temperature is 4° C. Mix 40 ml of 750 mM K2HPO4 stock solution and 10 ml of 750 mM NaH2PO4 stock solution (4 to 1 ratio). […] Store stock solution in a refrigerator (2 to 8° C.) equipped with a calibrated thermometer. Target temperature is 4° C. Dilute mixture with dH20 (1:9) to make working solution of ORAC buffer, and measure pH. It should be 7.4. Keep covered at room temperature until ready to use. Tween Preparation. Weigh out 10 g of Tween 20, and add 90 g of deionized water. Cover and stir the mixture overnight. Tween stock solution keeps for one week. Keep on countertop. Solvent Preparation. Mix 25 mL of acetone, 25 mL of deionized water, and 25 mL of Tween 20. Use this solvent to prepare samples. Before a run is performed: the probe should be inspected for damage paying particular attention to the membrane, replace if needed. Probes should be stored with the tips in deionized water. Only one probe and one reaction chamber should be used for this assay. Run a blank and Trolox® (at 10 μg/ml or 0.03995 μmol/ml) every 8 hours. […] The sample concentration and Trolox® concentration should be the same. The dilutions are prepared by weighing out 1 mg of sample and adding 1 ml of solvent to perform the initial extraction. Shake for one hour, place 0.5 ml of the initial extraction solution in a glass scintillation vial, and then add 4.5 ml of solvent, making the first dilution. Vortex the first dilution for about 30 seconds. Its concentration is 0.1 mg/ml or 100 ppm. Take 0.5 ml of the first dilution, put it into another glass scintillation vial, and then add 4.5 ml of solvent, vortex for about 30 seconds, to yield a concentration of 0.01 mg/ml or 10 ppm. Take 0.5 ml of the vial sample and put it into another glass scintillation vial, and then add 4.5 ml of solvent, vortex for about 30 seconds, to yield a concentration of […] are placed in a 4° C. refrigerator. In a 37° C. water bath allow linoleic acid to thaw, and prepare linoleic acid solution (with minimal light) by adding 0.18 mL Tween stock solution, 0.18 mL buffer, and 0.44 mL deionized water to 70.8 mg linoleic acid. Keep solution tube wrapped in foil. Make linoleic acid solution fresh every 8 hours. To prepare the oxygen radical generator, weigh 67.8 mg of AAPH, and dissolve in 0.9 mL buffer. Keep AAPH refrigerated, it may be used for up to eight hours. Shake for 1 hour. […]

Consider `Cc1c(C)c2c(c(C)c1O)CC[C@@](C)(CCC[C@H](C)CCC[C@H](C)CCCC(C)C)O2` [α-tocopherol], for which the “contribution to AO activity” value in assay [1] is recorded as “no contribution to AO activity; also recorded: no statistically significant activity could be detected”. Also, the “ORAC(fl-lipo) AUC, acetone:water:Tween-20 versus acetone:water” value in “ORAC(fl-lipo) assay” is recorded as “large increase in the AUC”.

On to `O=c1c(O)c(-c2ccc(O)c(O)c2)oc2cc(O)cc(O)c12` [quercetin], for which the “Area Under Curve (AUC), 5 Day Mean” value in assay [2] (quercetin sample 10 μg/mL) is 203.7. Further, in assay [2] (quercetin sample 10 μg/mL), the “Area under curve, 5 Run Mean” value is reported as 202.9. For the same compound, in assay [2] (quercetin sample 10 μg/mL, each day average of 3 runs), the “Area Under Curve (AUC), 5 day trial for precision” value was 202.7 and 212.9 and 187 and 202.9 and 213.1. For the same compound, the “Area under curve, single day trial for precision” value in assay [2] (quercetin sample 10 μg/mL, separate runs) is 207.4 and 198.2 and 205 and 201.6 and 202.1. Moreover, the “Area Under Curve” value in assay [2] (sample 1 μg/ml) is recorded as 124.6; in assay [2] (sample 10 μg/ml) it was 209.4; in assay [2] (sample 100 μg/ml) it was 693.6; in assay [2] (sample 500 μg/ml) it was 2328; in assay [2] (sample 1000 μg/ml), 2870.

The values above are taken from patent publication US20050214413A1, “Methods and compositions for modified release of nutritional supplements” (Mannatech, Inc., priority 2003, published 2005).
